Like-named read-outs stand apart in the source and are kept apart here.
Legend:
HCV NS5B polymerase = target: T1, HCV NS5B polymerase (Hepatitis C virus genotype 1b, UniProt Q9WMX2); experiment: De novo RNA synthesis activity assay for HCV NS5B polymerase; assay type: biochemical, HCV-1b CON1 strain
T1 construct: HCV NS5B was derived from a cDNA clone encoding HCV-1b CON1 strain, and was expressed and purified from E. coli; made in house; host or cells: E. coli
Description: HCV NS5B was derived from a cDNA clone encoding HCV-1b CON1 strain, and was expressed and purified from E. coli. Various [α-^33P]rNTPs (3000 Ci/mmol) were purchased from Perkin Elmer. 3′-Deoxy ribonucleosides, their 5′-triphosphates and dinucleotide primers were from Sigma, TriLink (San Diego, Calif.) or ICN Biochemicals. All other reagents were of the highest grade available from ICN, Sigma, Fisher, or Ambion.
An HCV mini-genome of 2.1-kb contains an entire 5′-UTR (untranslated region), part of NS5B sequence and an entire 3′-UTR was constructed from an internal deletion between two KpnI sites on the HCV replicon plasmid, pFK389/NS3-3′. To generate the in vitro transcribed mini-genome RNA, the plasmid DNA was linearized with AseI and ScaI and transcribed in vitro using a MegaScript kit (Ambion, Austin, Tex.). After phenol-chloroform extraction and isopropanol precipitation, the RNA was resuspended in RNase-free water and stored at −80° C. before use. This HCV strain CON1-based template was used for the standard NS5B-catalyzed RNA synthesis assay.
A standard NS5B activity assay was performed at 23C in a total volume of 25 μl. The reaction buffer contained 50 mM Tris, pH 7.0, 10 mM MgCl2, 50 mM NaCl, 5 mM DTT (add fresh) and 0.05 mg/ml BSA. 0.4 μg of the RNA template was incubated with NS5B enzyme (250 nM) before adding a mixture of radiolabeled nucleotide (0.2 μCi) and cold nucleotide cocktail to initiate a reaction. The assay was incubated for 1 hr and terminated by addition of 75 μl of 5% trichloroacetic acid (TCA) and 0.05% pyrophosphate solution. The quenched solution was incubated at room temperature for 10 min to precipitate out polymeric products and subsequently transferred to a 96-well white GF/B filter microplate (Packard Instrument) using a Packard Filtermate Universal Harvester. The filter plate was washed five times by water and one time by ethanol before vacuum drying. 40 μl of liquid scintillation cocktail (Packard MicroSint™) was added to each well. Radioactivity incorporated into the product was counted in a 96-well format using a Packard TopCount. IC50 values, defined as the inhibitor concentration to suppress 50% of NS5B activity, were determined by varying the compound concentration. The results in Table 1 are data obtained using the HCV NS5B assays described above.

[1] = system: HCV replicon RNA in replicon cells (Huh-7); experiment: HCV Replicon Assay (reduction of HCV RNA, QuantiGene); assay type: cell-based; conditions: Hepatitis C virus; for IC50: read-out: HCV Replicon (IC50); for EC50: first part of Table 1 (scaffold drawing 18)
Description: The anti-HCV activity of the quinoxaline derivatives was tested by replicon and BVDV cell-line based assays. The HCV NS5B polymerase activity was tested as described below, and was further tested for its capability of inhibition of replication of the hepatitis C virus in a cell-line based HCV replicon assay as described in V. Lohmann, F. Komer, J.-O. Koch, U. Herian, L. Theilmann, R. Bartenschlager, “Replication of a Subgenomic Hepatitis C virus RNAs in a Hepatoma Cell Line”, Science, 1999, 285:110.
HCV Replicon Assay. The replicon cells (Huh-7) contain replicating HCV replicon RNA, which was modified in the structural region (replacing the structural region with a neomycin resistance marker). Survival of the replicon cells under G418 selection relies on the replication of HCV RNA and subsequently expression of neomycin phosphoryltransferase. The ability of modified nucleoside libraries and compounds to suppress HCV RNA replication was determined using the QuantiGene™ Assay Kit (Bayer Diagnostics, Tarrytown N.Y.). The assay measures the reduction of HCV RNA molecules in the treated cells. Replicon cells were incubated at 37° C. for 3 days in the presence of nucleoside libraries and compounds before being harvested for detection. The assay protocol was modified based on literature procedure (V. Lohmann, F. Komer, J. O. Koch, U. Herian, L. Theilmann, R. Bartenschlager, Science, 1999, 285, 110–113). The HCV subgenomic replicon cell line was provided by Dr. R. Bartenschlager.

[2] = NS5B 250 nM, 23C, 1 hr, second part of Table 1 (scaffold drawing 19), read-out: HCV NS5B (EC50)
[3] = 72 h, Huh-7 replicon cells, 3 days at 37° C., second part of Table 1 (scaffold drawing 19)
[4] = 72 h, Huh-7 replicon cells, 3 days at 37° C.

T1 sequence (Q9WMX2 2420-3010): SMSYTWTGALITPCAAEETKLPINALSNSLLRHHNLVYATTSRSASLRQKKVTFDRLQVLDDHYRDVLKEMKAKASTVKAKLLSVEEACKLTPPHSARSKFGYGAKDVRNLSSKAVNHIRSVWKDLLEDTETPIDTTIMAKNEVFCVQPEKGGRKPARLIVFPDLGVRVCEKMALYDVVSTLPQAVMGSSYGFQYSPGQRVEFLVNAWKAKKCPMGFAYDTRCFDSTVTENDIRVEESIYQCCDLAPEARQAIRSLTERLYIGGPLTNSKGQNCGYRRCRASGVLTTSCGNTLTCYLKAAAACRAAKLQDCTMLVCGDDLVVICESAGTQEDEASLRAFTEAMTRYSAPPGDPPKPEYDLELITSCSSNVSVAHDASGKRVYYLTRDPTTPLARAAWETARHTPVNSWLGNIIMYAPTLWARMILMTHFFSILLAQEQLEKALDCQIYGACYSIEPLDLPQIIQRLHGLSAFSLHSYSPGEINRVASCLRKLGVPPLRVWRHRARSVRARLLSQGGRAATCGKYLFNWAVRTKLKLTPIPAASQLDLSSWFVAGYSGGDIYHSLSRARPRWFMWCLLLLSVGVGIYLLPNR

Compound	EC50 (HCV NS5B polymerase; [2])	IC50 [1, 3]	EC50 (HCV NS5B polymerase)	also measured
Cc1ccc(-c2nc3cc(C(=O)N[C@@H](Cc4c[nH]c5ccc(O)cc45)C(=O)O)ccc3nc2-c2ccc(Cl)cc2)cc1	< 10 µM			
O=C(N[C@@H](Cc1c[nH]c2ccc(O)cc12)C(=O)O)c1ccc2nc(-c3ccccc3)c(-c3ccccc3)nc2c1	> 50 µM			
O=C(O)c1ccc2nc(-c3ccccn3)c(-c3ccccn3)nc2c1		> 50 µM	> 50 µM	
COC(=O)[C@H](Cc1c[nH]c2ccc(O)cc12)NC(=O)c1ccc2nc(-c3ccc(F)cc3)c(-c3ccc(F)cc3)nc2c1 [R=OCH3, X=OH]				EC50 [1, 4]: 10 to 50 µM; IC50 (HCV NS5B polymerase): < 10 µM
Cc1ccc(-c2nc3cc(C(=O)O)ccc3nc2-c2ccc(Cl)cc2)cc1	< 10 µM			IC50 ([1]; Huh-7, 72 h): 10 to 50 µM
O=C(O)c1ccc2nc(-c3ccccc3)c(-c3ccccc3)nc2c1		> 50 µM	< 10 µM	
NC(=O)[C@H](Cc1c[nH]c2ccc(O)cc12)NC(=O)c1ccc2nc(-c3ccc(F)cc3)c(-c3ccc(F)cc3)nc2c1 [R=NH2, X=OH]				EC50 [1, 4]: 10 to 50 µM; IC50 (HCV NS5B polymerase): < 10 µM
COC(=O)[C@H](Cc1c[nH]c2ccccc12)NC(=O)c1ccc2nc(-c3ccccn3)c(-c3ccccn3)nc2c1		> 50 µM	> 50 µM	
O=C(N[C@@H](Cc1c[nH]c2ccccc12)C(=O)O)c1ccc2nc(-c3ccccc3)c(-c3ccccc3)nc2c1			10 to 50 µM	
O=C(N[C@@H](Cc1c[nH]c2ccc(O)cc12)C(=O)O)c1ccc2nc(-c3ccc(F)cc3)c(-c3ccc(F)cc3)nc2c1 [R=OH, X=OH]				EC50 [1, 4]: 10 to 50 µM; IC50 (HCV NS5B polymerase): < 10 µM
COC(=O)c1ccc2nc(-c3ccc(F)cc3)c(-c3ccc(F)cc3)nc2c1		> 50 µM	> 50 µM	
COC(=O)[C@H](Cc1c[nH]c2ccccc12)NC(=O)c1ccc2nc(-c3ccccc3)c(-c3ccccc3)nc2c1	> 50 µM			
O=C(N[C@@H](Cc1c[nH]c2ccccc12)C(=O)O)c1ccc2nc(-c3ccccn3)c(-c3ccccn3)nc2c1			> 50 µM	IC50 ([1]; Huh-7, 72 h): > 50 µM

From patent US7189724B2, “Quinoxaline derivatives having antiviral activity” (Valeant Research and Development, priority 2003, dated 2007)
